In US20230002324A1, “NAPHTHOQUINONE DERIVATIVES FOR TREATMENT OF OXIDATIVE STRESS DISORDERS” (PTC THERAPEUTICS, INC., priority 2019, published 2023):
Where two headings read alike, the source gives them in different places.

Assays:
[1] = system: Q7 cells (ST HDH Q7/7; immortalized mouse striatal cells); assay: Q7 RSL3 challenge cell survival (rescue) assay; assay type: cell-based; settings: 18 h, read-out: Q7 RSL3 Survival EC50
Method in brief: (§1)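 Q7 (33° C.) or NHF (37° C.) cells, 3,000/well, attached 5 h, then test compounds at varying final concentrations followed within 15 min by RSL3 (2 micromolar final); 0.3% DMSO. Assay medium identical to growth medium.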

[2] = system: normal human fibroblasts (NHF, GM21811); assay: NHF GM21811 RSL3 challenge cell survival (rescue) assay; assay type: cell-based; settings: Fibroblast, 48 h, read-out: NHF GM21811 RSL3 Survival EC50
Method in brief: as §1

CYP3A4 [3] = biological target: T1, CYP3A4 (Homo sapiens, UniProt P08684); assay: CYP450 Inhibition Assay 1 (pooled human liver microsomes, midazolam); assay type: in vitro ADME; settings: for IC50: HLM 0.05 mg/mL, midazolam 5 μM, 5 min; for CYP3A4 inhibition, in words: comment on Table 4
T1 construct: from tissue; host or cells: pooled human liver microsomes
Procedure: The CYP450 inhibition assay provides in vitro assessment of the inhibitory potential of the test compounds against cytochrome P450 enzymes. Selective substrates were incubated with pooled human liver microsomes (HLM) as single substrates. All assays employed 100 mM potassium phosphate buffer at pH 7.4.
The assays were performed in a 96-well PCR plate in a final volume of 140 μL at 37° C. Test compounds were evaluated at seven concentrations to obtain IC50 values, with a final concentration of 0.1% DMSO in the incubation (total organic solvent at 1% in the incubation). Reactions were initiated by the addition of NADPH. After the enzyme-specific incubation time had elapsed, an aliquot from that enzyme reaction was quenched in Acetonitrile with 0.2% Formic Acid. Supernatant from the quenched reactions was diluted with an equal volume of water, prior to analysis by LC-MS/MS.
All samples were analyzed on LC-MS/MS using an AB Sciex 6500+ instrument equipped with electrospray ionization source, coupled to a Shimadzu Nexera X2 system. Samples were separated using a Waters UPLC HSS T3, 1.8 μm column, 1×50 mm (catalog #186003535) at a flow rate of 200 μL/min. Injection volume was 2 μL.

[4] = system: Q7 cells (ST HDH Q7/7; immortalized mouse striatal cells); assay: Q7 Cystine Deprivation cell survival (rescue) assay; assay type: cell-based; settings: 18 h, read-out: Q7 Cystine Deprivation Survival EC50
Method in brief: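 Cells were seeded at 3,000/well and allowed to attach for 5 h at 33 °C. Wells were then washed twice with PBS and switched to cystine-free DMEM containing FBS, 4 mM L-glutamine, 1 mM pyruvate and 30 mg/L methionine to induce ferroptotic death. Compounds were scored for survival rescue.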

CYP3A4 [5] = biological target: T1, CYP3A4; assay: CYP450 Inhibition Assay 2 (pooled human liver microsomes, 5 concentrations); assay type: in vitro ADME; settings: Table 3; HLM 0.05 mg protein/mL, 10 min reaction
Procedure: In an alternative experimental design, test compounds were evaluated at 5 concentrations in a 96 well assay plate. Initial combination with pooled human liver microsomes (0.05 mg protein/mL) was followed by a 5 minute incubation. […] The assay plate was incubated for an additional 30 minutes before the reaction was initiated with the addition of NADPH. After 10 minutes of reaction time, the reaction was quenched and samples were analyzed in a similar manner as described above.

[6] = Q7 cells, RSL3 2 micromolar, Cell Titer Glo
[7] = NHF cells, RSL3 2 micromolar, Cell Titer Glo
[8] = Q7 cells, cystine-free medium, Cell Titer Glo, 50% relative viability vs Vitamin K2 (1 micromolar)

T1 sequence (P08684 whole entry): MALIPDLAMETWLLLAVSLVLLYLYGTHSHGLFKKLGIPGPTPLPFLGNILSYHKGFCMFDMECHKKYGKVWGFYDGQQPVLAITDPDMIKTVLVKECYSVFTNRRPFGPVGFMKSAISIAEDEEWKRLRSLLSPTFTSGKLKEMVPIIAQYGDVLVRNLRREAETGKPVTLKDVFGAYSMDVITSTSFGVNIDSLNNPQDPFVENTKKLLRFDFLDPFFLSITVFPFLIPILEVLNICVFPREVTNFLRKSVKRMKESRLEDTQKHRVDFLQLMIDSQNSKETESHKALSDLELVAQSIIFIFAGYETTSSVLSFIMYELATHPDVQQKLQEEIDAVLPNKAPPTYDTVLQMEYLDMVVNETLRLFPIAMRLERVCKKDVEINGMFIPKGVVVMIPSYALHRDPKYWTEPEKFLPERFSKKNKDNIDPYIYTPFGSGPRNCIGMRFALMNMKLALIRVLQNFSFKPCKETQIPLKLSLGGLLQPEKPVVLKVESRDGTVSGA

For `CCC1=C(Cc2ccc(C(F)(F)F)cn2)C(=O)c2c(F)ccc(F)c2C1=O` [Example 55, 2-ethyl-5,8-difluoro-3-((5-(trifluoromethyl)pyridin-2-yl)methyl)naphthalene-1,4-dione], the EC50 [1] was under 50 nM, the EC50 [2] was under 50 nM and the IC50 (CYP3A4 [3]; Table 3) was 3.68 µM.

For `CCC1=C(Cc2ccc(C(F)(F)F)cn2)C(=O)c2ccccc2C1=O` [Example 26, 2-ethyl-3-((5-(trifluoromethyl)pyridin-2-yl)methyl)naphthalene-1,4-dione], the EC50 [1, 6] was under 50 nM, the EC50 [2, 7] was under 50 nM and the EC50 [4, 8] was under 50 nM. For the same molecule, the IC50 (CYP3A4 [5]) was 14.2 µM.

Molecule `CC(C)C1=C(Cc2ccc(C(F)(F)F)cn2)C(=O)c2ccccc2C1=O` [Example 30, 2-isopropyl-3-((5-(trifluoromethyl)pyridin-2-yl)methyl)naphthalene-1,4-dione] has an EC50 [2] of under 50 nM, an EC50 [4] of under 50 nM and an IC50 (CYP3A4 [5]) of 10.3 µM.

With `CCC1=C(Cc2ccc(C(F)(F)F)c(C#N)n2)C(=O)c2cc(F)cc(F)c2C1=O` [Example 86, 6-((3-ethyl-5,7-difluoro-1,4-dioxo-1,4-dihydronaphthalen-2-yl)methyl)-3-(trifluoromethyl)picolinonitrile] the EC50 [1, 6] was under 50 nM, the EC50 [2, 7] was under 50 nM and the IC50 (CYP3A4 [3]; Table 3) was 6.66 µM.

With `CC1=C(Cc2ccccn2)C(=O)c2ccccc2C1=O` [Example 23, 2-methyl-3-(pyridin-2-ylmethyl)naphthalene-1,4-dione] the IC50 (CYP3A4 [3]; Table 3) was 22.8 µM, the EC50 [4, 8] was under 50 nM and the IC50 (CYP3A4 [5]) was 12.7 µM.

Molecule `CCC1=C(Cc2ccc(C(F)(F)F)c(C#N)n2)C(=O)c2c(F)ccc(F)c2C1=O` [Example 83, 6-((3-ethyl-5,8-difluoro-1,4-dioxo-1,4-dihydronaphthalen-2-yl)methyl)-3-(trifluoromethyl)picolinonitrile] has an EC50 [1, 6] of under 50 nM and an IC50 (CYP3A4 [3]; Table 3) of 2.73 µM.

`CCC1=C(Cc2ccc(C(F)(F)F)c(C#N)n2)C(=O)c2ccc(F)cc2C1=O` [Example 81, 6-((3-ethyl-6-fluoro-1,4-dioxo-1,4-dihydronaphthalen-2-yl)methyl)-3-(trifluoromethyl)picolinonitrile] gave an EC50 [1, 6] of under 50 nM, an EC50 [2, 7] of under 50 nM and an IC50 (CYP3A4 [3]; Table 3) of 11 µM.

Work on `[2H]C([2H])([2H])C1=C(Cc2ccc(C(F)(F)F)cn2)C(=O)c2cc(F)cc(F)c2C1=O` [Example 57, 5,7-difluoro-3-(methyl-d3)-2-((5-(trifluoromethyl)pyridin-2-yl)methyl)naphthalene-1,4-dione] yielded an EC50 [1, 6] of under 50 nM and an IC50 (CYP3A4 [3]; Table 3) of 1.49 µM.

`CC1=C(Cc2cccnc2)C(=O)c2ccccc2C1=O` [Comparison Compound 1, reference compound] was tested, and the IC50 (CYP3A4 [3]; Table 4 comparison) was 0.421 µM and the “CYP3A4 inhibition, in words” value (CYP3A4 [3]) was “very potent inhibitor of CYP3A4”.

With `N#Cc1nc(CC2=C(C3CC3)C(=O)c3c(F)ccc(F)c3C2=O)ccc1C(F)(F)F` [Example 84, 6-((3-cyclopropyl-5,8-difluoro-1,4-dioxo-1,4-dihydronaphthalen-2-yl)methyl)-3-(trifluoromethyl)picolinonitrile] the EC50 [1, 6] was under 50 nM, the EC50 [2, 7] was under 50 nM and the IC50 (CYP3A4 [3]; Table 3) was 1.56 µM.

Work on `CC1=C(Cc2ccc(C(F)(F)F)c(C#N)n2)C(=O)c2c(F)ccc(F)c2C1=O` [Example 79, 6-((5,8-difluoro-3-methyl-1,4-dioxo-1,4-dihydronaphthalen-2-yl)methyl)-3-(trifluoromethyl)picolinonitrile] yielded an EC50 [1, 6] of under 50 nM, an EC50 [2, 7] of under 50 nM and an IC50 (CYP3A4 [3]; Table 3) of 2.4 µM.

`CC1=C(Cc2ccc(C(F)(F)F)cn2)C(=O)c2ccccc2C1=O` [Example 1, 2-methyl-3-((5-(trifluoromethyl)pyridin-2-yl)methyl)naphthalene-1,4-dione] was tested, and the EC50 [1, 6] was under 50 nM, the EC50 [2, 7] was under 50 nM and the IC50 (CYP3A4 [3]; Table 3) was 5.78 µM. It also gave an EC50 [4, 8] of under 50 nM and an IC50 (CYP3A4 [5]) of 35.7 µM.

With `CC1=C(Cc2ccncc2)C(=O)c2ccccc2C1=O` [Comparison Compound 2, reference compound] the IC50 (CYP3A4 [3]; Table 4 comparison) was 1.07 µM and the “CYP3A4 inhibition, in words” value (CYP3A4 [3]) was “potent CYP3A4 inhibitor”.

`CC1=C(Cc2ccc(C(F)(F)F)cn2)C(=O)c2c(ccc(F)c2F)C1=O` [Example 128, 5,6-difluoro-2-methyl-3-((5-(trifluoromethyl)pyridin-2-yl)methyl)naphthalene-1,4-dione] gave an EC50 [1, 6] of under 50 nM and an IC50 (CYP3A4 [3]; Table 3) of 1.3 µM.

Molecule `CC1=C(Cc2ccc(C(F)(F)F)c(C#N)n2)C(=O)c2ccc(F)cc2C1=O` [Example 70, 6-((6-fluoro-3-methyl-1,4-dioxo-1,4-dihydronaphthalen-2-yl)methyl)-3-(trifluoromethyl)picolinonitrile] has an EC50 [1, 6] of under 50 nM, an EC50 [2, 7] of under 50 nM and an IC50 (CYP3A4 [3]; Table 3) of 4.14 µM.
